Test results from patent US12215140B2, “Method of stabilizing protein contained in specimen and solution for stabilizing protein contained in specimen” (EIKEN KAGAKU KABUSHIKI KAISHA, priority 2018, dated 2025).
Values belong to the compound of their own block, whether it stands above or below them.

Target: hemoglobin (Homo sapiens, UniProt P68871+P69905)
Assay: Stability of hemoglobin in samples preserved at 37° C. in preservation solution containing no haptoglobin, Hb measured by latex agglutination method (Examples 8, 9 and Table 10)
Conditions: for recovery ratio of hemoglobin in the sample: sugar further added to phenylboronic acid 0.5 mmol/L, no haptoglobin, Feces 1, Feces 2, Feces 3
Method: Preservation solutions were prepared with the addition of 40 mmol/L HEPES (pH 6.8), 0.1% BSA, 0.1% NaN3, and 0 to 2.5 mmol/L phenylboronic acid. […] Samples obtained by adding hemoglobin-added fecal specimens to the preservation solutions so that the fecal concentration would be 0.5% were preserved at 37° C. for 0, 16, 38, and 62 hours. The fecal specimens were added with hemoglobin having an amount such that the hemoglobin concentration in the samples would be about 300 μg/L. Instead of the fecal specimens to which hemoglobin was added, samples containing no fecal specimens, in which hemoglobin was added to the preservation solutions so that the hemoglobin concentration in the samples would be 300 μg/L, were similarly preserved. The hemoglobin (Hb) concentrations (μg/L) in the preserved samples were measured by the latex agglutination method using the same measurement reagent and measurement device as in Example 1.
The concentration of phenylboronic acid in the preservation solutions of Example 8 was fixed to 0.5 mmol/L, preservation solutions to which sorbitol or sucrose was further added at 10 to 250 mmol/L or trehalose, glucose, fructose, or mannitol was further added at 50 to 100 mmol/L were prepared, and testing was conducted in the same manner as in Example 8. In addition, preservation solutions to which the phenylboronic acid was added but no sugar was added were prepared, preservation solutions to which the phenylboronic acid and sugar were not added were prepared for the comparative examples, and testing was conducted in the same manner.
For comparative examples, preservation solutions to which no arylboronic acid was added were prepared, and testing was conducted in the same manner.

[1] = Feces 1, 0 h at 37° C., no phenylboronic acid, sugar 100 mmol/L
[2] = Feces 1, 16 h at 37° C., no phenylboronic acid, sugar 100 mmol/L
[3] = Feces 1, 38 h at 37° C., no phenylboronic acid, sugar 100 mmol/L
[4] = Feces 1, 62 h at 37° C., no phenylboronic acid, sugar 100 mmol/L
[5] = Feces 2, 0 h at 37° C., no phenylboronic acid, sugar 100 mmol/L
[6] = Feces 2, 16 h at 37° C., no phenylboronic acid, sugar 100 mmol/L
[7] = Feces 2, 38 h at 37° C., no phenylboronic acid, sugar 100 mmol/L
[8] = Feces 2, 62 h at 37° C., no phenylboronic acid, sugar 100 mmol/L
[9] = Feces 3, 0 h at 37° C., no phenylboronic acid, sugar 100 mmol/L
[10] = Feces 3, 16 h at 37° C., no phenylboronic acid, sugar 100 mmol/L
[11] = Feces 3, 38 h at 37° C., no phenylboronic acid, sugar 100 mmol/L
[12] = Feces 3, 62 h at 37° C., no phenylboronic acid, sugar 100 mmol/L
[13] = No feces, 0 h at 37° C., no phenylboronic acid, sugar 100 mmol/L
[14] = No feces, 16 h at 37° C., no phenylboronic acid, sugar 100 mmol/L
[15] = No feces, 38 h at 37° C., no phenylboronic acid, sugar 100 mmol/L
[16] = No feces, 62 h at 37° C., no phenylboronic acid, sugar 100 mmol/L
[17] = Feces 1, 0 h at 37° C., arylboronic acid 0.5 mmol/L, no sugar
[18] = Feces 1, 16 h at 37° C., arylboronic acid 0.5 mmol/L, no sugar
[19] = Feces 1, 38 h at 37° C., arylboronic acid 0.5 mmol/L, no sugar
[20] = Feces 1, 62 h at 37° C., arylboronic acid 0.5 mmol/L, no sugar
[21] = Feces 1, arylboronic acid 0.5 mmol/L, 0 h at 37° C.
[22] = Feces 1, arylboronic acid 0.5 mmol/L, 16 h at 37° C.
[23] = Feces 1, arylboronic acid 0.5 mmol/L, 38 h at 37° C.
[24] = Feces 1, arylboronic acid 0.5 mmol/L, 62 h at 37° C.
[25] = Feces 2, 0 h at 37° C., arylboronic acid 0.5 mmol/L, no sugar
[26] = Feces 2, 16 h at 37° C., arylboronic acid 0.5 mmol/L, no sugar
[27] = Feces 2, 38 h at 37° C., arylboronic acid 0.5 mmol/L, no sugar
[28] = Feces 2, 62 h at 37° C., arylboronic acid 0.5 mmol/L, no sugar
[29] = Feces 2, arylboronic acid 0.5 mmol/L, 0 h at 37° C.
[30] = Feces 2, arylboronic acid 0.5 mmol/L, 16 h at 37° C.
[31] = Feces 2, arylboronic acid 0.5 mmol/L, 38 h at 37° C.
[32] = Feces 2, arylboronic acid 0.5 mmol/L, 62 h at 37° C.
[33] = Feces 3, 0 h at 37° C., arylboronic acid 0.5 mmol/L, no sugar
[34] = Feces 3, 16 h at 37° C., arylboronic acid 0.5 mmol/L, no sugar
[35] = Feces 3, 38 h at 37° C., arylboronic acid 0.5 mmol/L, no sugar
[36] = Feces 3, 62 h at 37° C., arylboronic acid 0.5 mmol/L, no sugar
[37] = Feces 3, arylboronic acid 0.5 mmol/L, 0 h at 37° C.
[38] = Feces 3, arylboronic acid 0.5 mmol/L, 16 h at 37° C.
[39] = Feces 3, arylboronic acid 0.5 mmol/L, 38 h at 37° C.
[40] = Feces 3, arylboronic acid 0.5 mmol/L, 62 h at 37° C.
[41] = No feces, 0 h at 37° C., arylboronic acid 0.5 mmol/L, no sugar
[42] = No feces, 16 h at 37° C., arylboronic acid 0.5 mmol/L, no sugar
[43] = No feces, 38 h at 37° C., arylboronic acid 0.5 mmol/L, no sugar
[44] = No feces, 62 h at 37° C., arylboronic acid 0.5 mmol/L, no sugar
[45] = No feces, arylboronic acid 0.5 mmol/L, 0 h at 37° C.
[46] = No feces, arylboronic acid 0.5 mmol/L, 16 h at 37° C.
[47] = No feces, arylboronic acid 0.5 mmol/L, 38 h at 37° C.
[48] = No feces, arylboronic acid 0.5 mmol/L, 62 h at 37° C.

Chain of hemoglobin (P69905 2-142): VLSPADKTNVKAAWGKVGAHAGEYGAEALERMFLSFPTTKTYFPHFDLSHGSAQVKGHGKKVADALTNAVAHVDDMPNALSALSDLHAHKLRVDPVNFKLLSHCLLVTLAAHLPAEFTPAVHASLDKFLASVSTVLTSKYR
Chain of hemoglobin (P68871 2-147): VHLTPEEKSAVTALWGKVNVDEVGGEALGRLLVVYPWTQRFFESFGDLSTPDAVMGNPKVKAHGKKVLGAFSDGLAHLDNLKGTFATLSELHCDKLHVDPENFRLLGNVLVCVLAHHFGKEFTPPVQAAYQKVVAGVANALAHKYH

Hb concentration [1]: 268 µg/L
Recovery ratio with respect to Hb after 0 days [1]: 100%
Hb concentration [2]: 133 µg/L
Recovery ratio with respect to Hb after 0 days [2]: 50%
Hb concentration [3]: 41 µg/L
Recovery ratio with respect to Hb after 0 days [3]: 15%
Hb concentration [4]: 8 µg/L
Recovery ratio with respect to Hb after 0 days [4]: 3%
Hb concentration [5]: 254 µg/L
Recovery ratio with respect to Hb after 0 days [5]: 100%
Hb concentration [6]: 54 µg/L
Recovery ratio with respect to Hb after 0 days [6]: 21%
Hb concentration [7]: 1 µg/L
Recovery ratio with respect to Hb after 0 days [7]: 0%
Hb concentration [8]: 0 µg/L
Recovery ratio with respect to Hb after 0 days [8]: 0%
Hb concentration [9]: 260 µg/L
Recovery ratio with respect to Hb after 0 days [9]: 100%
Hb concentration [10]: 48 µg/L
Recovery ratio with respect to Hb after 0 days [10]: 19%
Hb concentration [11]: 0 µg/L
Recovery ratio with respect to Hb after 0 days [11]: 0%
Hb concentration [12]: 0 µg/L
Recovery ratio with respect to Hb after 0 days [12]: 0%
Hb concentration [13]: 280 µg/L
Recovery ratio with respect to Hb after 0 days [13]: 100%
Hb concentration [14]: 241 µg/L
Recovery ratio with respect to Hb after 0 days [14]: 86%
Hb concentration [15]: 228 µg/L
Recovery ratio with respect to Hb after 0 days [15]: 81%
Hb concentration [16]: 219 µg/L
Recovery ratio with respect to Hb after 0 days [16]: 78%
recovery ratio of hemoglobin in the sample: further improved
SMILES: OC[C@H]1O[C@H](O[C@H]2O[C@H](CO)[C@@H](O)[C@H](O)[C@H]2O)[C@H](O)[C@@H](O)[C@@H]1O [Trehalose, trehalose]

Hb concentration [17]: 298 µg/L
Recovery ratio with respect to Hb after 0 days [17]: 100%
Hb concentration [18]: 171 µg/L
Recovery ratio with respect to Hb after 0 days [18]: 57%
Hb concentration [19]: 79 µg/L
Recovery ratio with respect to Hb after 0 days [19]: 26%
Hb concentration [20]: 25 µg/L
Recovery ratio with respect to Hb after 0 days [20]: 8%
Hb concentration [21]: 298 µg/L
Recovery ratio with respect to Hb after 0 days [21]: 100%
Hb concentration [22]: 171 µg/L
Recovery ratio with respect to Hb after 0 days [22]: 57%
Hb concentration [23]: 79 µg/L
Recovery ratio with respect to Hb after 0 days [23]: 26%
Hb concentration [24]: 25 µg/L
Recovery ratio with respect to Hb after 0 days [24]: 8%
Hb concentration [25]: 295 µg/L
Recovery ratio with respect to Hb after 0 days [25]: 100%
Hb concentration [26]: 95 µg/L
Recovery ratio with respect to Hb after 0 days [26]: 32%
Hb concentration [27]: 11 µg/L
Recovery ratio with respect to Hb after 0 days [27]: 4%
Hb concentration [28]: 0 µg/L
Recovery ratio with respect to Hb after 0 days [28]: 0%
Hb concentration [29]: 295 µg/L
Recovery ratio with respect to Hb after 0 days [29]: 100%
Hb concentration [30]: 95 µg/L
Recovery ratio with respect to Hb after 0 days [30]: 32%
Hb concentration [31]: 11 µg/L
Recovery ratio with respect to Hb after 0 days [31]: 4%
Hb concentration [32]: 0 µg/L
Recovery ratio with respect to Hb after 0 days [32]: 0%
Hb concentration [33]: 295 µg/L
Recovery ratio with respect to Hb after 0 days [33]: 100%
Hb concentration [34]: 106 µg/L
Recovery ratio with respect to Hb after 0 days [34]: 36%
Hb concentration [35]: 9 µg/L
Recovery ratio with respect to Hb after 0 days [35]: 3%
Hb concentration [36]: 0 µg/L
Recovery ratio with respect to Hb after 0 days [36]: 0%
Hb concentration [37]: 295 µg/L
Recovery ratio with respect to Hb after 0 days [37]: 100%
Hb concentration [38]: 106 µg/L
Recovery ratio with respect to Hb after 0 days [38]: 36%
Hb concentration [39]: 9 µg/L
Recovery ratio with respect to Hb after 0 days [39]: 3%
Hb concentration [40]: 0 µg/L
Recovery ratio with respect to Hb after 0 days [40]: 0%
Hb concentration [41]: 306 µg/L
Recovery ratio with respect to Hb after 0 days [41]: 100%
Hb concentration [42]: 282 µg/L
Recovery ratio with respect to Hb after 0 days [42]: 92%
Hb concentration [43]: 263 µg/L
Recovery ratio with respect to Hb after 0 days [43]: 86%
Hb concentration [44]: 264 µg/L
Recovery ratio with respect to Hb after 0 days [44]: 86%
Hb concentration [45]: 306 µg/L
Recovery ratio with respect to Hb after 0 days [45]: 100%
Hb concentration [46]: 282 µg/L
Recovery ratio with respect to Hb after 0 days [46]: 92%
Hb concentration [47]: 263 µg/L
Recovery ratio with respect to Hb after 0 days [47]: 86%
Hb concentration [48]: 264 µg/L
Recovery ratio with respect to Hb after 0 days [48]: 86%
SMILES: OB(O)c1cccc(O)c1 [3H-PBA, 3-hydroxyphenylboronic acid]

Hb concentration [1]: 276 µg/L
Recovery ratio with respect to Hb after 0 days [1]: 100%
Hb concentration [2]: 131 µg/L
Recovery ratio with respect to Hb after 0 days [2]: 48%
Hb concentration [3]: 29 µg/L
Recovery ratio with respect to Hb after 0 days [3]: 10%
Hb concentration [4]: 1 µg/L
Recovery ratio with respect to Hb after 0 days [4]: 0%
Hb concentration [5]: 266 µg/L
Recovery ratio with respect to Hb after 0 days [5]: 100%
Hb concentration [6]: 55 µg/L
Recovery ratio with respect to Hb after 0 days [6]: 21%
Hb concentration [7]: 1 µg/L
Recovery ratio with respect to Hb after 0 days [7]: 0%
Hb concentration [8]: 0 µg/L
Recovery ratio with respect to Hb after 0 days [8]: 0%
Hb concentration [13]: 281 µg/L
Recovery ratio with respect to Hb after 0 days [13]: 100%
Hb concentration [14]: 254 µg/L
Recovery ratio with respect to Hb after 0 days [14]: 91%
Hb concentration [15]: 237 µg/L
Recovery ratio with respect to Hb after 0 days [15]: 84%
Hb concentration [16]: 235 µg/L
Recovery ratio with respect to Hb after 0 days [16]: 84%
recovery ratio of hemoglobin in the sample: further improved
SMILES: OC[C@@H](O)[C@@H](O)[C@H](O)[C@H](O)CO [Mannitol, mannitol]
